Laboratory results taken from publication PMC9257522, “Machine Learning for Discovery of New ADORA Modulators” (Frontiers in Pharmacology, 2022).
Where two headings read alike, the source gives them in different places. Blank lines part the entries; values can stand above or below the compound they belong to.

Experiments:
human A1AR [1] = tested on: T1, human A1AR; experiment: A1AR cAMP assay, HEK293 A1AR Nomad cell line (Innoprot), agonist mode; type: cell-based; conditions: compounds at 10 µM, normalized to 10 µM NECA (100%) and vehicle DMSO (0%)
T1 construct: host or cells: HEK293 A1AR Nomad cell line
Text: For screening of the initial compounds predicted by machine learning models to activate A1AR receptor, we used the HEK293 A1AR Nomad cell line, which consists of HEK293 cells stably expressing human A1AR with no tag. This cell line has been designed to assay compounds or analyze their capability to modulate the A1AR. When the agonist binds to A1AR in this engineered cell line a Go protein is activated, which in turn, triggers a cellular response mediated by cAMP inhibition. This cellular response can be measured by quantifying the increase in fluorescence intensity and its cellular distribution. An agonist assay was performed for 29 compounds (predicted to be active by the machine learning model) in the human recombinant HEK293 A1AR Nomad cell line using a fluorescence-based assay. An agonist effect of the compounds was measured by quantifying the changes in the fluorescence emission cAMP Nomad biosensor, this elevation of fluorescence was analyzed using a plate reader Synergy 2 (Biotek, Winooski, VT). The error bars represent the standard deviation among the three replicate wells. The 29 compounds were tested at 10 μM using nonselective AR agonist adenosine-5′-N-ethyluronamide (NECA) at 10 μM as a reference.

human A1AR [2] = tested on: T1, human A1AR; experiment: Radioligand displacement binding, [3H]DPCPX, HEK293 membranes; conditions: mean ± standard error, three independent experiments
Description: (§1) HEK293 cells stably expressing the human A1AR, A2AAR, A3AR were cultured in DMEM supplemented with 10% fetal bovine serum, 100 Units/ml penicillin, 100 µg/ml streptomycin, and 2 µmol/ml glutamine. To prepare cell membranes, cells were detached from culture plates by scraping into cold PBS and centrifuged at 250 g for 5 min. The pellets were resuspended in ice-cold PBS buffer (pH 7.4) and then homogenized. After homogenization and suspension, cells were centrifuged at 1,000 g for 10 min, and the pellet was discarded. The suspension was then re-centrifuged at 20,000 g for 60 min at 4°C. […] The aliquots of membrane preparations were stored at −80°C until the binding experiments. For displacement binding assays, membrane preparations (20 µg proteins/tube) were incubated at 25°C for 60 min with a final concentration of [^3H]DPCPX (0.5 nM), [^3H]ZM241385 (1.0 nM), […] [^125I]I-AB-MECA (0.1 nM) for A1AR, A2AAR, A3AR, respectively, in a mixture containing 50 µl of increasing concentrations of a test ligand in a total assay volume of 200 µl of 50 mM Tris HCl, pH 7.4, containing 10 mM MgCl2. Nonspecific binding was determined using 100 µM of XAC. The reaction was terminated by filtration with GF/B filters using a Brandel (Gaithersburg, MD) 24-channel harvester. Filters were placed in scintillation vials containing 5 ml of Hydrofluor scintillation buffer (National Diagnostics, Atlanta, GA) and counted using a Tricarb 2810TR liquid scintillation counter (PerkinElmer, Waltham, MA).

A1AR = tested on: T2, A1AR; experiment: cAMP assay in AR-expressing HEK293 cells (ALPHAScreen), A1AR; type: cell-based, human; conditions: A1AR-expressing HEK cells; cAMP inhibition, Cl-ENBA reference full agonist
T2 construct: expressed in transfected cells; host or cells: HEK293
Description: (§2) HEK293 cells were grown in 96-well plates in DMEM supplemented with 10% fetal bovine serum, 100 Units/ml penicillin, 100 µg/ml streptomycin, and 2 µmol/ml glutamine. […] For A1AR and A3AR, after incubation with agonists for 20 min, forskolin (10 µM) was added and the mixture incubated for an additional 15 min. The reaction was terminated upon removal of the supernatant and addition of 100 µl Tween-20 (0.3%). Intracellular cAMP levels were measured with an ALPHAScreen cAMP assay kit as instructed by the manufacturer (PerkinElmer).

human A2AAR [3] = biological target: T3, human A2AAR (Homo sapiens, UniProt P29274); experiment: cAMP assay in AR-expressing HEK293 cells (ALPHAScreen), A2AAR; type: cell-based; conditions: A2AAR-expressing HEK293 cells
T3 construct: expressed in transfected cells; host or cells: HEK293
T3 sequence (P29274 whole entry): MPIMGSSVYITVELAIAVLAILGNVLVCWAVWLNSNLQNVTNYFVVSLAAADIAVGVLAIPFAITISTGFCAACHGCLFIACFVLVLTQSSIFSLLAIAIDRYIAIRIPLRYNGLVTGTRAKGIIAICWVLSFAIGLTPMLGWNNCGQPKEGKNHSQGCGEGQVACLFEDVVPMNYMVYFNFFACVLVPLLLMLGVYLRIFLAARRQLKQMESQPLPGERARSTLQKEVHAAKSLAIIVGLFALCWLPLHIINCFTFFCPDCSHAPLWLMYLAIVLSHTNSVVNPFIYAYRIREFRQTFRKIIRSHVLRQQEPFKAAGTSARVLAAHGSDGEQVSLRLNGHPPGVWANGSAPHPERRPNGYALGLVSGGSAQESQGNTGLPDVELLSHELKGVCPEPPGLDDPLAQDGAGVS
Description: as §2

human A2BAR = experiment: Radioligand displacement binding, [3H]DPCPX
human A2AAR [4] = biological target: T3, human A2AAR; experiment: Radioligand displacement binding, [3H]ZM241385, HEK293 membranes; conditions: mean ± standard error, three independent experiments
Description: as §1

human A3AR = biological target: T4, human A3AR (Homo sapiens, UniProt P0DMS8); experiment: Radioligand displacement binding, [125I]I-AB-MECA, HEK293 membranes; conditions: mean ± standard error, three independent experiments
T4 sequence (P0DMS8 1-318): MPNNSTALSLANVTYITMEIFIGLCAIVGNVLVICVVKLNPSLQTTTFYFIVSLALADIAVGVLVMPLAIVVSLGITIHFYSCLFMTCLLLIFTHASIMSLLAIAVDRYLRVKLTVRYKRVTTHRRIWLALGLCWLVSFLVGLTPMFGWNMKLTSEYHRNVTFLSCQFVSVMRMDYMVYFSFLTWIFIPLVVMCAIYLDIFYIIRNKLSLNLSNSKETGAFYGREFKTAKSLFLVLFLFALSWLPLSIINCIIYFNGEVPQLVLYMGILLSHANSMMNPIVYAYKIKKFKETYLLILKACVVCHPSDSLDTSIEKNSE
Description: as §1

A2BAR = tested on: T5, A2BAR; conditions: background property of the receptor, no reference given, cited from earlier work
T5 construct: expressed in transfected cells; host or cells: HEK293

A3AR = conditions: background property of the receptor, no reference given; listed as ADO; cited from earlier work
A2AAR = conditions: read-out: Ki, A2AAR; A2AAR antagonist; quoted without method, no reference given; cited from earlier work

Compound: Cc1ccc(S(=O)(=O)/C=C/C#N)cc1 [BAY 11-7082, (E)-3-(4-methylphenylsulfonyl)-2-propenenitrile]
normalized activity with respect to the positive control (human A1AR [1]): 95.74%

Inhibition of specific binding, % inhibition at 100 µM, A1 ([3H]DPCPX) (human A1AR [2]): 29.8 ± 5.2%
cAMP, A2AAR activity (stimulation of cAMP) (human A2AAR [3]): Not active
cAMP, A2AAR activity (stimulation of cAMP) (human A2AAR [3]; listed as febuxostat): not
Inhibition of specific binding, % inhibition at 100 µM, A2B ([3H]DPCPX) (human A2BAR): <10%
Ki, A2A ([3H]ZM241385) (human A2AAR [4]): in the µM range
Ki (human A2AAR [4]; read-out: Ki, A2A ([3H]ZM241385)): 22.9 ± 4.3 µM
Ki, A3 ([125I]I-AB-MECA) (human A3AR): in the µM range
Ki (human A3AR; read-out: Ki, A3 ([125I]I-AB-MECA)): 67.3 ± 45.7 µM
Compound: Cc1nc(-c2ccc(OCC(C)C)c(C#N)c2)sc1C(=O)O [Febuxostat]
cAMP, A1AR agonist activity (A1AR): Not active
normalized activity with respect to the positive control (human A1AR [1]): 94.53%

Compound: Nc1ncnc2c1ncn2[C@@H]1O[C@H](CO)[C@@H](O)[C@H]1O [Adenosine]
Adenosine affinity, A2BAR (A2BAR): Low affinity
Adenosine affinity, A2BAR (A2BAR; listed as ADO): relatively lower affinity
Adenosine affinity, A3AR (A3AR): relatively lower affinity

Compound: CCn1c(=O)c2c(nc(/C=C/c3ccc(OC)c(OC)c3)n2C)n(CC)c1=O [istradefylline, Istradefylline]
Ki (A2AAR): 0.0022 µM
